System: CBZ aptamer (DNA, aptamer) CGAGGCTCTCGGGACGACGGGGCACGGGCCTCTGGGTCGGCATGGCCCGTCGTCCCGCCTTTAGGATTTACAG
Details: upper bound only; assay and buffer not stated

**Q.** For `NC(=O)N1c2ccccc2C=Cc2ccccc21`, which Kd is on record?
**A.** < 12 nM

— publication PMC9631757 (2022)
